Data set [1] in a line: Stability of DNCB in a dissolved state. Conditions: even more unstable at high temperatures. It is filed as physicochemical.
For data set [2] the following is noted: cited from earlier work.

For `O=[N+]([O-])c1ccc(Cl)c([N+](=O)[O-])c1` [DNCB, 1-chloro-2,4-dinitrobenzene], in data set [1], the “stability in a dissolved state” value was “unstable in a dissolved state”. Also, the “adverse events of DNCB” value in data set [2] (reports to date) was “have not been any reports to date of cases of life-threatening adverse events”. In data set [2] (research conducted in the 1950s in the United States), the carcinogenicity result is reported as “not carcinogenic”.

(Values after patent publication US20040109825A1, “Topical patch preparation kit containing a delayed-type hypersensitivity inducer” (priority 2002, published 2004).)
